Test results taken from patent publication US7754759B2, “Arylsulfonyl chromans as 5-HT6 inhibitors” (Roche Palo Alto LLC, priority 2005, dated 2010).
Counter-ions that a name gives are not always drawn.

Columns and labels:
[1] = molecular target: T1, recombinant human 5-HT2A receptor (Homo sapiens, UniProt P28223); assay: Radioligand binding, [3H]Ketanserin competition at 5-HT2A receptor; details: membranes of CHO-K1 cells expressing recombinant human 5-HT2A receptor, 32° C., read-out: pKi for the 5-HT2A receptor (converted)
T1 construct: expressed in transfected cells
Procedure: (§1) The binding activity of compounds of this invention in vitro was determined as follows. Duplicate determinations of 5-HT6 ligand affinity were made by competing for binding of [^3H]LSD in cell membranes derived from HEK293 cells stably expressing recombinant human 5-HT6 receptor. Duplicate determinations of 5-HT2A ligand affinity were made by competing for binding of [^3H]Ketanserin (3-(2-(4-(4-fluorobenzoyl)piperidinol)ethyl)-2,4(1H,3H)-quinazolinedione) in cell membranes derived from CHO-K1 cells stably expressing recombinant human 5-HT2A receptor. Membranes were prepared from HEK 293 cell lines by the method described by Monsma et al., Molecular Pharmacology, Vol. 43 pp. 320-327 (1993), and from CHO-K1 cell lines as described by Bonhaus et al., Br J Pharmacol. June; 115(4):622-8 (1995).
(§2) For estimation of affinity at the 5-HT6 receptor, all determinations were made in assay buffer containing 50 mM Tris-HCl, 10 mM MgSO4, 0.5 mM EDTA, 1 mM ascorbic acid, pH 7.4 at 37° C., in a 250 microliter reaction volume. […]
(§3) Assay tubes containing [^3H] […] LSD or [^3H]Ketanserin were determined as radioactive counts per minute using Packard TopCount.
(§4) Displacement of [^3H]LSD or [^3H]Ketanserin from the binding sites was quantified by fitting concentration-binding data to a 4-parameter logistic equation: […]

[2] = molecular target: T2, recombinant human 5-HT6 receptor (Homo sapiens, UniProt P50406); assay: Radioligand binding, [3H]LSD competition at 5-HT6 receptor; details: membranes of HEK293 cells expressing recombinant human 5-HT6 receptor, 37° C., read-out: pKi for the 5-HT6 receptor (converted)
T2 construct: expressed in transfected cells
Procedure: as §1, §2, §3, §4

T2 sequence (P50406 whole entry): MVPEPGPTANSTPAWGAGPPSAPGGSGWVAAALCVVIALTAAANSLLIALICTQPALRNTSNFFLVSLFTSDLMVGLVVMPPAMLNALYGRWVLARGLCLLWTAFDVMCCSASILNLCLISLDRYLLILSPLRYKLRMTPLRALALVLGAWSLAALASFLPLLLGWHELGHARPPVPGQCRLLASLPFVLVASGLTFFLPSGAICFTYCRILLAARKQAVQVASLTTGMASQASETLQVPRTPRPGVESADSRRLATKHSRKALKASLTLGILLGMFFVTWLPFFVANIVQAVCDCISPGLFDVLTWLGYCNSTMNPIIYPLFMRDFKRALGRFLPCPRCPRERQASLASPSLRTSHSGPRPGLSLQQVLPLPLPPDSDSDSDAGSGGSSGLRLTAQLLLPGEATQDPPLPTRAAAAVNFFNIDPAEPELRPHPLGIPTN
T1 sequence (P28223 whole entry): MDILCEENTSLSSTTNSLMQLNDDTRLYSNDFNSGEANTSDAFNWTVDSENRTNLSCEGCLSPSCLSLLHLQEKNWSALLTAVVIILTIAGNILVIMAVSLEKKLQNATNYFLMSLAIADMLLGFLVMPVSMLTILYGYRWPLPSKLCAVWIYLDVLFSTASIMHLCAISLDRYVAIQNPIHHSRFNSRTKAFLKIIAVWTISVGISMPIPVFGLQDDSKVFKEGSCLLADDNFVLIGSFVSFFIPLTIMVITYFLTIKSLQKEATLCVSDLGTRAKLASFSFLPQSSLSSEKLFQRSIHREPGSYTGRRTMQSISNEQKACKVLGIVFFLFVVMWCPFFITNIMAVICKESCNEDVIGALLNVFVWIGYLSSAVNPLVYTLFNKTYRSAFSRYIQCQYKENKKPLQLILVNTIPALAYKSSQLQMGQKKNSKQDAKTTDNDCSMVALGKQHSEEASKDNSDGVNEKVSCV

Row | Structure (SMILES) | melting point | Ki [1] | Ki [2]
1 | CNCC1CC(C)(O)c2ccc(S(=O)(=O)c3ccccc3)cc2O1 (centres unmarked) (as salt: trifluoroacetate) [Compound 4, 7-Benzenesulfonyl-4-methyl-2-methylaminomethyl-chroman-4-ol] | 163.9 to 165.3 °C |  | 
2 | CNC[C@@H]1CCc2ccc(S(=O)(=O)c3ccccc3)cc2O1 [Compound 7, (S)-(7-Benzenesulfonyl-chroman-2-ylmethyl)-methyl-amine] |  | ~56.2 nM | ~0.1 nM
3 | CNCC1CC(=O)c2ccc(S(=O)(=O)c3ccccc3)cc2O1 (centres unmarked) (as salt: TFA) [Compound 1, 7-Benzenesulfonyl-2-methylaminomethyl-chroman-4-one] | 157.8 to 189.6 °C |  | 
4 | CNCC1CCc2ccc(S(=O)(=O)c3ccccc3)cc2O1 (centres unmarked) (as salt: TFA) [Compound 3, (7-Benzenesulfonyl-chroman-2-ylmethyl)-methyl-amine] | 196.2 to 198.2 °C |  | 

Now from value to compound:

Row | melting point | Ki [1] | Ki [2] | Structure (SMILES)
5 | 259 to 261 °C |  |  | CNC[C@H]1CCc2ccc(S(=O)(=O)c3cccc(F)c3)cc2O1 [Compound 35, (R)-[7-(3-Fluoro-benzenesulfonyl)-chroman-2-ylmethyl]-methyl-amine]
6 | 257.1 to 258.9 °C |  |  | NC[C@H]1CCc2ccc(S(=O)(=O)c3cccc(F)c3)cc2O1 [Compound 46, (R)-C-[7-(3-Fluoro-benzenesulfonyl)-chroman-2-yl]-methylamine]
7 | 129.5 to 131.5 °C |  |  | C[C@H](O)C(=O)NC[C@H]1CCc2ccc(S(=O)(=O)c3ccccc3)cc2O1 (stereo in doubt) [Compound 30, (R)-N-(7-Benzenesulfonyl-chroman-2-ylmethyl)-2-hydroxy-propionamide]
